Source: the NIST ThermoML archive (doi:10.1021/je060496l)
Numbers after ± are expanded uncertainties.

Test: xn = mol fraction of the nth substance listed
Conditions: 101 kPa, Liquid

CC(O)CO (stereo unspecified) [1,2-propanediol] + OCC(O)CO
mass density [kg/m3]
Conditions	x2 = 0	x2 = 0.0841	x2 = 0.1712	x2 = 0.2615	x2 = 0.3552	x2 = 0.4524	x2 = 0.5534	x2 = 0.6585	x2 = 0.7677	x2 = 0.8815
298.15 K	1032.5 ± 1.6	1052.6 ± 1.6	1072.7 ± 1.6	1094.1 ± 1.7	1115.8 ± 1.7	1138.3 ± 1.7	1161 ± 1.8	1184.4 ± 1.8	1207.8 ± 1.9	1233.3 ± 1.9
303.15 K	1029.2 ± 1.6	1049.2 ± 1.7	1069.6 ± 1.7	1090.5 ± 1.7	1112.6 ± 1.8	1134.8 ± 1.8	1157.5 ± 1.8	1181.2 ± 1.9	1205 ± 1.9	1230.1 ± 2
308.15 K	1025.3 ± 1.7	1045.7 ± 1.7	1066.1 ± 1.8	1087.1 ± 1.8	1109.3 ± 1.8	1131.4 ± 1.9	1154.2 ± 1.9	1178 ± 2	1202.2 ± 2	1227.4 ± 2
313.15 K	1021.5 ± 1.8	1042 ± 1.8	1062.4 ± 1.8	1083.8 ± 1.9	1105.6 ± 1.9	1128.2 ± 1.9	1151.2 ± 2	1175.1 ± 2	1199.2 ± 2.1	1224.4 ± 2.1
318.15 K	1018 ± 1.8	1038.5 ± 1.8	1058.6 ± 1.9	1080.2 ± 1.9	1102.3 ± 2	1124.8 ± 2	1147.9 ± 2	1171.5 ± 2.1	1195.6 ± 2.1	1221 ± 2.2
323.15 K	1014 ± 1.9	1034.7 ± 1.9	1055 ± 1.9	1076.3 ± 2	1098.3 ± 2	1121.2 ± 2.1	1144.1 ± 2.1	1168.1 ± 2.1	1192.5 ± 2.2	1218 ± 2.2
328.15 K	1010.2 ± 1.9	1031 ± 2	1051.4 ± 2	1072.7 ± 2	1094.7 ± 2.1	1117.5 ± 2.1	1140.5 ± 2.2	1164.6 ± 2.2	1189 ± 2.2	1214.7 ± 2.3
333.15 K	1006.2 ± 2	1027.2 ± 2	1047.6 ± 2.1	1069.2 ± 2.1	1091.2 ± 2.1	1114.3 ± 2.2	1137.3 ± 2.2	1161.3 ± 2.3	1185.8 ± 2.3	1211.3 ± 2.4

OCC(O)CO [glycerol] + CC(C)O
mass density [kg/m3]
Conditions	x1 = 0.0676	x1 = 0.1402	x1 = 0.2185	x1 = 0.3031	x1 = 0.3949	x1 = 0.4946	x1 = 0.6036	x1 = 0.723	x1 = 0.8545	x1 = 1
298.15 K	813.5 ± 1.2	848.6 ± 1.3	887.5 ± 1.3	929.1 ± 1.4	974.3 ± 1.5	1023.8 ± 1.5	1077 ± 1.6	1135.2 ± 1.7	1196.5 ± 1.8	1258.9 ± 2
303.15 K	809.5 ± 1.2	844.7 ± 1.3	883.8 ± 1.4	926.4 ± 1.4	970.6 ± 1.5	1020 ± 1.6	1073.4 ± 1.7	1131.9 ± 1.8	1193.4 ± 1.9	1255.6 ± 2
308.15 K	805.5 ± 1.3	840.5 ± 1.4	879.9 ± 1.4	922.3 ± 1.5	967.3 ± 1.6	1016.2 ± 1.7	1070.4 ± 1.8	1128.5 ± 1.9	1190 ± 2	1252.7 ± 2.1
313.15 K	801.4 ± 1.4	836.1 ± 1.4	875.9 ± 1.5	918.4 ± 1.5	963.4 ± 1.6	1012.6 ± 1.7	1067 ± 1.8	1125 ± 1.9	1186.8 ± 2	1249.5 ± 2.1
318.15 K	796.8 ± 1.4	831.9 ± 1.5	871.7 ± 1.5	914.5 ± 1.6	959.2 ± 1.7	1008.7 ± 1.8	1063.1 ± 1.9	1121.3 ± 2	1183.2 ± 2.1	1246.2 ± 2.2
323.15 K	792.2 ± 1.5	827.6 ± 1.5	867.4 ± 1.6	910.2 ± 1.7	955.3 ± 1.8	1004.8 ± 1.9	1059.6 ± 1.9	1117.6 ± 2	1180.3 ± 2.2	1242.9 ± 2.3
328.15 K	787.5 ± 1.5	823.3 ± 1.6	863.3 ± 1.6	906.2 ± 1.7	951.3 ± 1.8	1000.9 ± 1.9	1055.7 ± 2	1114.1 ± 2.1	1176.6 ± 2.2	1239.6 ± 2.3
333.15 K	782.9 ± 1.6	818.4 ± 1.6	858.8 ± 1.7	901.6 ± 1.8	947.5 ± 1.9	997.2 ± 2	1051.9 ± 2.1	1110.5 ± 2.2	1173.1 ± 2.3	1236 ± 2.4

OCC(O)CO [glycerol] + CC(O)CO
x1 = 1
Conditions	mass density [kg/m3]
298.15 K	1258.9 ± 2
303.15 K	1255.6 ± 2
308.15 K	1252.7 ± 2.1
313.15 K	1249.5 ± 2.1
318.15 K	1246.2 ± 2.2
323.15 K	1242.9 ± 2.3
328.15 K	1239.6 ± 2.3
333.15 K	1236 ± 2.4

OCC(O)CO [glycerol] + CCCO
mass density [kg/m3]
Conditions	x1 = 0.0676	x1 = 0.1402	x1 = 0.2185	x1 = 0.3031	x1 = 0.3949	x1 = 0.4946	x1 = 0.6036	x1 = 0.723	x1 = 0.8545	x1 = 1
298.15 K	832.8 ± 1.2	867.3 ± 1.3	903.5 ± 1.3	942.9 ± 1.4	986 ± 1.5	1032.7 ± 1.6	1083.1 ± 1.6	1138.8 ± 1.7	1198.7 ± 1.8	1258.9 ± 2
303.15 K	828.9 ± 1.3	863.2 ± 1.3	900 ± 1.4	939.3 ± 1.5	982.1 ± 1.5	1029.5 ± 1.6	1079.9 ± 1.7	1135.7 ± 1.8	1195.6 ± 1.9	1255.6 ± 2
308.15 K	825 ± 1.3	859.4 ± 1.4	896 ± 1.5	935.6 ± 1.5	978.4 ± 1.6	1025.9 ± 1.7	1076.3 ± 1.8	1132.4 ± 1.9	1192.7 ± 2	1252.7 ± 2.1
313.15 K	820.7 ± 1.4	855.4 ± 1.4	892.1 ± 1.5	931.5 ± 1.6	974.7 ± 1.7	1022.3 ± 1.8	1072.7 ± 1.8	1128.8 ± 1.9	1189.5 ± 2	1249.5 ± 2.1
318.15 K	816.8 ± 1.4	851.3 ± 1.5	888.3 ± 1.6	927.7 ± 1.6	970.8 ± 1.7	1018.4 ± 1.8	1069.2 ± 1.9	1125.5 ± 2	1186.1 ± 2.1	1246.2 ± 2.2
323.15 K	812.5 ± 1.5	847.2 ± 1.6	884.1 ± 1.6	923.6 ± 1.7	966.8 ± 1.8	1014.7 ± 1.9	1065.5 ± 2	1122 ± 2.1	1182.7 ± 2.2	1242.9 ± 2.3
328.15 K	808.4 ± 1.6	843.1 ± 1.6	880.3 ± 1.7	919.7 ± 1.8	963.3 ± 1.9	1010.8 ± 1.9	1061.8 ± 2	1118.3 ± 2.1	1179.2 ± 2.2	1239.6 ± 2.3
333.15 K	804.3 ± 1.6	839.2 ± 1.7	876.3 ± 1.8	915.7 ± 1.8	959.4 ± 1.9	1006.8 ± 2	1058 ± 2.1	1114.3 ± 2.2	1175.8 ± 2.3	1236 ± 2.4

OCC(O)CO [glycerol] + OCCCO
x1 = 1
Conditions	mass density [kg/m3]
298.15 K	1258.9 ± 2
303.15 K	1255.6 ± 2
308.15 K	1252.7 ± 2.1
313.15 K	1249.5 ± 2.1
318.15 K	1246.2 ± 2.2
323.15 K	1242.9 ± 2.3
328.15 K	1239.6 ± 2.3
333.15 K	1236 ± 2.4
